The values that follow come from patent publication US20250340560A1, “SUBSTITUTED PYRAZOLO[1,5-a]PYRIMIDINES AS BRUTON'S TYROSINE KINASE MODULATORS” (BEIGENE SWITZERLAND GMBH, priority 2013, published 2025).

Counter-ions that a name gives are not always drawn.

The target of this assay is Recombinant Btk (Homo sapiens (Human), UniProt Q06187). Briefly: BTK kinase assay (TR-FRET). The settings on record: read-out: IC50 (nM) Btk; 1 hour pre-incubation, ATP at Km. In general terms: TR-FRET usually uses a lanthanide donor and a delayed reading to cut background.
Chain of Recombinant Btk (Q06187 whole entry): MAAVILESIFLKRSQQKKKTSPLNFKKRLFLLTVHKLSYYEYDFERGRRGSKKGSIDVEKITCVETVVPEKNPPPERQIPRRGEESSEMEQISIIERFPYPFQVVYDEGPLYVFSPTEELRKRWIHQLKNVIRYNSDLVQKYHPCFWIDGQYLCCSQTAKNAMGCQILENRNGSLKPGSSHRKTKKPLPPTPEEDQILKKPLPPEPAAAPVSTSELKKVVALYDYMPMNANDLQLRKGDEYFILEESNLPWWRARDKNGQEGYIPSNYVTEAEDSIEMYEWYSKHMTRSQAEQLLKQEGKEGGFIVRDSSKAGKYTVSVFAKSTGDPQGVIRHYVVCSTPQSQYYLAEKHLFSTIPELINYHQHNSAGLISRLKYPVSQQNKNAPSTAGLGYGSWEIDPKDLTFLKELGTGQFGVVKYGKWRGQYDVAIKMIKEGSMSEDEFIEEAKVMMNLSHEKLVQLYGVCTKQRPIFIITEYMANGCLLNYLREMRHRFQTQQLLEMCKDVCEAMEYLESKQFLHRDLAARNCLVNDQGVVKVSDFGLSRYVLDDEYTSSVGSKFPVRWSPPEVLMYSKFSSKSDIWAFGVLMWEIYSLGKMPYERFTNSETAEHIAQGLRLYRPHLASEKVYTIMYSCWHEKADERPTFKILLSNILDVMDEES

For the compound `C=CC(=O)Nc1ccc2c(c1)CC(=O)Nc1c(C(N)=O)c(-c3ccc(Oc4ccccc4)cc3)nn1-2` [Compound 75, 8-Acrylamido-5-oxo-2-(4-phenoxyphenyl)-5,6-dihydro-4H-benzo[f]pyrazolo[1,5-a][1,3]diazepine-3-carboxamide], the concentration for half-maximal inhibition (IC50) – broadly, the point on the concentration scale where inhibition reaches its midpoint – turned out to be 41 nM.

For `NC(=O)c1c(-c2ccc(Oc3ccccc3)cc2)nn2c1[nH]c1cc([N+](=O)[O-])ccc12` [Compound 128, 6-nitro-2-(4-phenoxyphenyl)-4H-benzo[4,5]imidazo[1,2-b]pyrazole-3-carboxamide], the IC50 was 930 nM.

In the case of `C=CC(=O)N(C)CC1CCNc2c(C(N)=O)c(-c3ccc(Oc4ccccc4)cc3)nn21` (stereo not shown) [Compound 35], the 50% inhibitory concentration (IC50) stood at 1.1 nM.

Regarding `NC(=O)c1c(-c2ccc(Oc3ccccc3)cc2)nn2c1[nH]c1cnccc12` [Compound 61, 2-(4-Phenoxyphenyl)-4H-pyrazolo[1′,5′:1,2]imidazo[4,5-c]pyridine-3-carboxamide], the IC50 was found to be 140 nM.

Regarding `NCC1CCNc2c(C(N)=O)c(-c3cnn(Cc4ccccc4)c3)nn21` (stereo not shown) [Compound 36, 7-(Aminomethyl)-2-(1-benzyl-1H-pyrazol-4-yl)-4,5,6,7-tetrahydro pyrazolo[1,5-a]pyrimidine-3-carboxamide trifluoroacetate], the IC50 is greater than 10000 nM.

In the case of `C=CC(=O)Nc1ccccc1C1CCNc2c(C(N)=O)c(-c3cccc(Cl)c3)nn21` (stereo not shown) [Compound 155, 7-(2-Acrylamidophenyl)-2-(3-chlorophenyl)-4,5,6,7-tetrahydropyrazolo[1,5-a]pyrimidine-3-carboxamide], the IC50 is 0.96 nM.

With `N#CCC(=O)N1CCc2[nH]c3c(C(N)=O)c(-c4ccc(Oc5ccccc5)cc4)nn3c2C1` [Compound 56, 7-(2-Cyanoacetyl)-2-(4-phenoxyphenyl)-5,6,7,8-tetrahydro-4H-pyrazolo[5′,1′:2,3]imidazo[4,5-c]pyridine-3-carboxamide], the IC50 was found to be 110 nM.

For `C=CC(=O)N1CC(C2CCNc3c(C(N)=O)c(-c4ccc(OCc5ccccn5)cc4)nn32)C1` (stereo not shown) [Compound 105, 7-(1-acryloylazetidin-3-yl)-2-(4-(pyridin-2-ylmethoxy)phenyl)-4,5,6,7-tetrahydropyrazolo[1,5-a]pyrimidine-3-carboxamide], the IC50 was determined as 18 nM.

Take `CC(C)(C)OC(=O)N1CC2[C@@H](CNc3c(C(N)=O)c(-c4ccc(Oc5ccccc5)cc4)nn32)C1` (single isomer, unassigned) [Compound 114, Cis-7-(1-tert-Butoxycarbonyl)-2-(4-phenoxyphenyl)-5,5a,6,7,8,8a-hexahydro-4H-pyrazolo[1,5-a]pyrrolo[3,4-e]pyrimidine-3-carboxamide]: the IC50 came out at 6000 nM.

For the compound `NC(=O)c1c(-c2ccc(Oc3ccccc3)cc2)nn2c1NCCC2C1CCN(C(=O)/C=C/CN2CCCCC2)CC1` (stereo not shown) [Compound 170, (E)-2-(4-Phenoxyphenyl)-7-(1-(4-(piperidin-1-yl)but-2-enoyl)piperidin-4-yl)-4,5,6,7-tetrahydropyrazolo[1,5-a]pyrimidine-3-carboxamide], the IC50 was determined as 3.8 nM.

On to `NC(=O)c1c(-c2ccc(Oc3ccccc3)cc2)nn2c1NCC(c1cccc(N)c1)C2` (stereo not shown) [Compound 90, 6-(3-Aminophenyl)-2-(4-phenoxyphenyl)-4,5,6,7-tetrahydropyrazolo[1,5-a]pyrimidine-3-carboxamide], for which the IC50 amounted to 1900 nM.

Consider `NC(=O)c1c(-c2ccc(Oc3ccccc3)cc2)nn2c3c([nH]c12)CNCC3` [Compound 62, 2-(4-Phenoxyphenyl)-5,6,7,8-tetrahydro-4H-pyrazolo[1′,5′:1,2]imidazo [4,5-c]pyridine-3-carboxamide], for which the half-inhibitory concentration (IC50) came out at 240 nM.

Consider `COc1ccc(-c2nn3c(c2C(N)=O)NCCC3c2ccccc2N)cc1` (stereo not shown) [Compound 93, 7-(2-Aminophenyl)-2-(4-methoxyphenyl)-4,5,6,7-tetrahydropyrazolo[1,5-a]pyrimidine-3-carboxamide], for which the IC50 amounted to 1500 nM.

As for `NC(=O)c1c(-c2ccc(Oc3ccccc3)cc2)nn2c3c([nH]c12)CCNCC3` [Compound 120], the IC50 worked out at 180 nM.

`N#CN1CCC([C@@H]2CCNc3c(C(N)=O)c(-c4ccc(Oc5ccccc5)cc4)nn32)CC1` [Compound 182, (S)-7-(1-cyanopiperidin-4-yl)-2-(4-phenoxyphenyl)-4,5,6,7-tetrahydropyrazolo[1,5-a]pyrimidine-3-carboxamide]: the half-maximal inhibitory concentration (IC50) stood at 124 nM.

Turning to `C=CC(=O)NCC1(C)CCNc2c(C(N)=O)c(-c3ccc(Oc4ccccc4)cc3)nn21` (stereo not shown) [Compound 143, 7-(acrylamidomethyl)-7-methyl-2-(4-phenoxyphenyl)-4,5,6,7-tetrahydropyrazolo[1,5-a]pyrimidine-3-carboxamide], the IC50 turned out to be 0.89 nM.

Turning to `C=CC(=O)Nc1ccccc1C1CCNc2c(C(N)=O)c(-c3cc(Cl)c(OC)c(Cl)c3)nn21` (stereo not shown) [Compound 169, 7-(2-Acrylamidophenyl)-2-(3,5-dichloro-4-methoxyphenyl)-4,5,6,7-tetrahydropyrazolo[1,5-a]pyrimidine-3-carboxamide], the IC50 is 0.15 nM.

On to `NC(=O)c1c(-c2ccc(Oc3ccccc3)cc2)nn2c1NCCC2c1ccc(N)cc1` (stereo not shown) [Compound 98, 7-(4-aminophenyl)-2-(4-phenoxyphenyl)-4,5,6,7-tetrahydropyrazolo[1,5-a]pyrimidine-3-carboxamide], for which the half-inhibitory concentration (IC50) amounted to 77 nM.

`C=CC(=O)N1CCC2(CC1)C(=O)Nc1c(C(N)=O)c(-c3ccc(Oc4ccccc4)cc3)nn12` [Compound 83, 1′-Acryloyl-2-oxo-6-(4-phenoxyphenyl)-1,2-dihydrospiro[imidazo[1,2-b]pyrazole-3,4′-piperidine]-7-carboxamide]: the half-maximal inhibitory concentration (IC50) is 130 nM.

On to `C=CC(=O)N(C)c1ccccc1C1CCNc2c(C(N)=O)c(-c3ccc(Oc4ccc(F)cc4)cc3)nn21` (stereo not shown) [Compound 16, 2-(4-(4-Fluorophenoxy)phenyl)-7-(2-(N-methylacrylamido)phenyl)-4,5,6,7-tetrahydropyrazolo[1,5-a]pyrimidine-3-carboxamide], for which the IC50 was 19 nM.

For `COc1cc(-c2nn3c(c2C(N)=O)NCCC3c2ccccc2NC(=O)/C=C/CN(C)C)ccc1C` (stereo not shown) [Compound 165, (E)-7-(2-(4-(Dimethylamino)but-2-enamido)phenyl)-2-(3-methoxy-4-methylphenyl)-4,5,6,7-tetrahydropyrazolo[1,5-a]pyrimidine-3-carboxamide], the half-inhibitory concentration (IC50) was determined as 1.6 nM.

Turning to `C=CC(=O)Nc1ccccc1C1CCNc2c(C(N)=O)c(-c3ccc(OCc4ccccn4)c(Cl)c3)nn21` (stereo not shown) [Compound 146, 7-(2-Acrylamidophenyl)-2-(3-chloro-4-(pyridin-2-ylmethoxy)phenyl)-4,5,6,7-tetrahydropyrazolo[1,5-a]pyrimidine-3-carboxamide], the IC50 turned out to be 1.3 nM.

Turning to `NC(=O)c1c(-c2ccc(Oc3ccccc3)cc2)nn2c1NCC[C@H]2C1CCN(C(=O)C#CCN2CCCC2)CC1` [Compound 187, (S)-2-(4-Phenoxyphenyl)-7-(1-(4-(pyrrolidin-1-yl)but-2-ynoyl)piperidin-4-yl)-4,5,6,7-tetrahydropyrazolo[1,5-a]pyrimidine-3-carboxamide], the IC50 is 2.1 nM.

On to `CC#CC(=O)NCC1CCNc2c(C(N)=O)c(-c3ccc(Oc4ccccc4)cc3)nn21` (stereo not shown) [Compound 185, 7-(But-2-ynamidomethyl)-2-(4-phenoxyphenyl)-4,5,6,7-tetrahydropyrazolo[1,5-a]pyrimidine-3-carboxamide], for which the half-maximal inhibitory concentration (IC50) came to 4.3 nM.

In the case of `NC(=O)c1c(-c2ccc(Oc3ccccc3)cc2)nn2c1NCCC2C1CCNCC1` (stereo not shown) [Compound 26, 7-(Piperidin-4-yl)-2-(4-phenoxyphenyl)-4,5,6,7-tetrahydropyrazolo [1,5-a]pyrimidine-3-carboxamide trifluoroacetate], the IC50 was found to be 1700 nM.

As to `NC(=O)c1c(-c2ccc(Oc3ccccc3)cc2)nn2c(-c3cccc(N)c3)c[nH]c12` [Compound 49, 3-(3-Aminophenyl)-6-(4-phenoxyphenyl)-1H-pyrazolo[1,5-a]imidazole-7-carboxamide], the concentration for half-maximal inhibition (IC50) worked out at 29 nM.

Regarding `NCC1CCNc2c(C(N)=O)c(-c3ccc(Oc4ccccc4)cc3)nn21` (stereo not shown) [Compound 32, 7-(Aminomethyl)-2-(4-phenoxyphenyl)-4,5,6,7-tetrahydropyrazolo [1,5-a]pyrimidine-3-carboxamide], the half-maximal inhibitory concentration (IC50) was determined as 1700 nM.

Turning to `NC(=O)c1c(-c2ccc(Oc3ccccc3)cc2)nn2c1NCC1(CNC1)C2` [Compound 87, 2′-(4-Phenoxyphenyl)-5′,7′-dihydro-4′H-spiro[azetidine-3,6′-pyrazolo[1,5-a]pyrimidine]-3′-carboxamide], the IC50 is 2000 nM.

For `C=CC(=O)Nc1ccccc1C1CCNc2c(C(N)=O)c(-c3ccc(Cl)c(Cl)c3)nn21` (stereo not shown) [Compound 156, 7-(2-Acrylamidophenyl)-2-(3,4-dichlorophenyl)-4,5,6,7-tetrahydropyrazolo[1,5-a]pyrimidine-3-carboxamide], the half-inhibitory concentration (IC50) worked out at 0.55 nM.

As for `C=CC(=O)Nc1ccccc1C1CCNc2c(C(N)=O)c(-c3ccc(F)c(F)c3)nn21` (stereo not shown) [Compound 137, 7-(2-acrylamidophenyl)-2-(3,4-difluorophenyl)-4,5,6,7-tetrahydropyrazolo[1,5-a]pyrimidine-3-carboxamide], the 50% inhibitory concentration (IC50) turned out to be 3.2 nM.

With `CC#CC(=O)NCC1CCNc2c(C(N)=O)c(-c3ccc(Oc4ccc(F)cc4F)cc3)nn21` (stereo not shown) [Compound 190, 7-(But-2-ynamidomethyl)-2-(4-(2,4-difluorophenoxy)phenyl)-4,5,6,7-tetrahydropyrazolo[1,5-a]pyrimidine-3-carboxamide], the IC50 was 38 nM.

For `C=CC(=O)N1CCC(c2cc(=O)[nH]c3c(C(N)=O)c(-c4ccc(Oc5ccccc5)cc4)nn23)CC1` [Compound 81], the IC50 is 5900 nM.

With `CNc1ccccc1C1CCNc2c(C(N)=O)c(-c3ccc(Oc4ccc(F)cc4)cc3)nn21` (stereo not shown) [Compound 15, 2-(4-(4-Fluorophenoxy)phenyl)-7-(2-(methylamino)phenyl)-4,5,6,7-tetrahydropyrazolo[1,5-a]pyrimidine-3-carboxamide], the 50% inhibitory concentration (IC50) is 2700 nM.

As for `NC(=O)c1c(-c2ccc(Oc3ccccc3)cc2)nn2c1NCC21CCN(Cc2ccccc2)CC1` [Compound 38, 1′-Benzyl-6-(4-phenoxyphenyl)-1,2-dihydrospiro[imidazo[1,2-b]pyrazole-3,4′-piperidine]-7-carboxamide], the IC50 came out at 490 nM.
